Experimental data from patent publication US6335322B1, “Therapeutic agents” (priority 1993, dated 2002).
“Also recorded” adds a separate entry of the source. Like-named read-outs stand apart in the source and are kept apart here.

Columns and labels:
[1] = system: A549 cells (human lung carcinoma); assay: Cell inactivation, colony forming ability, A549; type: cell-based; conditions: FIG. 9; exposed for 24 hours
Protocol: (§1) Cell inactivation measured by means of loss of ability to form colonies was determined for several compounds. Cells used were of the established human cell lines of cancer cervix in situ origin, NHIK 3025, NHIK 3025/DDP, a cis-DDP-resistant variant of the same or A549 cells (human lung carcinoma). The cells were exposed to the test compound for 4 up till 24 hours. Test compounds were administered as micellar solution. Number of colonies were counted after about 12 days of incubation.
The cells were exposed for 24 hours.

[2] = system: Raji human B-lymphoma cells; assay: Raji leptomeningal carcinomatosis model in nude rats; type: in vivo; conditions: for mean day of death: 3 bolus injections on day 1, 2 and 4
Protocol: The model used is a tumour model in nude rats for leptomeningal growth of tumours. 1×10^6 cells of the Bcell tumour line Raji were injected into the spinal fluid through cistema magna (c.m.). of 4-5 weeks old nude rats. […] Anaesthetised animals were treated intracerebrally with a 40 μl injection into cistema magna with 3 or 4 bolus injections. Treatment was started 1 day after cell inoculation.

[3] = system: TLX/5 lymphoma; assay: Anti-tumour activity against murine TLX/5 lymphoma; type: in vivo, CBA mice; conditions: FIG. 16; for Maximum increase in lifespan: i.p. days 3-7, 6.25-50 mg/kg/day, median of 5; for doses at which active (increase in life span): i.p. treatment for 5 days
Protocol: CBA mice weighing 20-25 g were inoculated subcutaneously inguinally with 1×10^5, TLX/5 tumour cells day 0. […] Doses were in the range 6.25-50 mg/kg/day. There were 5 mice per treatment per group and 10 tumour-bearing controls. Activity was assessed in terms of increase in life span (ILS) versus controls.

[4] = system: brain metastasis of a melanoma; assay: Clonogenic agarose assay, melanoma brain metastasis biopsy; type: cell-based, human
Protocol: A biopsy was taken from the patient and placed immediately in a growth medium. […] Twenty-four hours before termination of the cultures (7 days) ^3H Thymidin was added. The activity of the test substance is thus quantified as cpm in a scintillation counter.

[5] = rat, in vivo
Protocol: (§2) Plasma concentrations of total radioactivity and of the metabolites were determined at different timepoints. Tissue concentrations of total radioactivity were determined from a range of tissues at different timepoints up to 120 hours following injection. Liver tissues were extracted and metabolite concentrations were determined up to 72 hours post injection.

[6] = system: NHIK 3025/DDP cells; assay: Cell inactivation, colony forming ability, NHIK 3025/DDP; type: cell-based, human; conditions: FIG. 8; 4 h treatment
Protocol: as §1
The results here are obtained with 4 h treatment of NHIK 3025/DDP cells.

[7] = system: Molt 4 human lymphoma cells; assay: Molt 4 leptomeningal carcinomatosis model in nude rats; type: in vivo; conditions: FIG. 12; treated 4x in cisterna magna
Protocol: The model used is a tumour model in nude rats for leptomeningal growth of tumours. 10^6 cells of the T-cell tumour line Molt 4 were injected into the spinal fluid through cistema magna (c.m.) of 4-5 weeks old nude rats. The animals develop neurological symptoms after 20-22 days if untreated. Anaesthetised animals were treated intracerebrally with a 40 μl injection into cistema magna with 4 bolus injections. Treatment was started 1 day after cell inoculation. Test compounds were Ara-C-5′-elaidyl ester (in micelles) and Ara-C. Ara-C was administered both at maximal tolerable dose (MTD) and at an equimotar dose to Ara-C-5′-elaidyl ester. Control animals (treated with NaCl) developed symptoms from the central nervous system after approximately 20 days.

[8] = system: NFkappaB; assay: Activation of the cellular transcription factor NFkappaB (β-galactosidase reporter, SW480 cells); type: cell-based, human; conditions: FIG. 15; exposure 4 h
Protocol: Human SW480 colon adenocarcinoma cells stably transfected with a CMV promotor/enhancer containing the gene for β-galactosidase were used. Activation of the transcription factor NFkappaB results in enhanced amount of the enzyme β-galactosidase in cytoplasma. The amount of β-galactosidase is quantified using optical density at 570 nm as parameter. The […] cells were incubated 2-3 days before exposure to the test compound for 4 h. The cells were washed and prepared, and optical density recorded for the different compounds.

[9] = Comparative pharmacokinetic, distribution, metabolism and excretion, i.v. to male rats; conditions: for Excretion of radioactivity: 14C-Ara-C-elaidate 5 mg/kg or 14C-Ara-C 2.4 mg/kg
Protocol: as §2

[10] = system: glioblastoma cell line U-118; assay: Glioblastoma U-118 subcutaneous tumour in nude mice, intratumoural injection
Protocol: A glioblastoma cell line U-118 (Uppsala) tissue culture was injected subcutaneously in nude mice. A small part (2×2 mm) of growing tumour was transferred to new mice. […] Depending on the actual tumour size, the animals received the same relative amount of test substance. The control was given saline water. The growth rate was recorded as relative tumour volume (RTV).

[11] = system: Raji human B-lymphoma cells; assay: Leukaemia model using Raji cells in SCID mice; type: in vivo
Protocol: SCID mice were injected intravenously with 1×10^6 Raji human B-lymphoma cells. […] Animals develop paralysis of the hind legs as a result of the tumour growth.

[12] = system: PV/2b/35 hemangiosarcoma cells; assay: Anti-tumour activity in SCID mice with hemangiosarcoma cells; type: in vivo; conditions: FIG. 17, 25 mg/kg/day
Source text: SCID mice were inoculated intraperitoneally with PV/2b/35 hemangiosarcoma cells. […] Controls were empty micelles, DMSO or PBS respectively. The animals were not treated during weekends. Survival was the endpoint of the study.

[13] = system: glioblastoma taken from a patient; assay: Clonogenic agarose assay, glioblastoma biopsy; type: cell-based, human; conditions: FIGS. 1 and 2
Protocol: A biopsy was taken from the patient and placed immediately in a growth medium. Tumour tissue was desegregated mechanically, and living cells were selected the chemotherapeutic test substance was added, BCNU (in water) and Ara-C and Ara-C esters (in micelles), and the cells were cultivated in a soft agarose medium. Twenty-four hours before termination of the cultures (7 days) ^3H Thymidin was added. The activity of the test substance is thus quantified as cpm in a scintillation counter.
The results here are obtained with a glioblastoma taken from a patient. The same response pattern is found in 8 other glioblastoma biopsies. […] The results are given as % of the untreated control. A count of 50% (CD50) is taken as promising regarding use in therapy of this actual cancer line. What is worth nothing here is the 10^1.5 higher concentration of Ara-C needed to obtain CD50 as compared with elaidyl esters.

CCCCCCCCCCCC=CCCCCC(=O)OCC1OC(n2ccc(N)nc2=O)C(O)C1O (stereo not drawn) [Ara-C-5′-petroseline ester]
inactivation (colony forming ability) compared to Ara-C [1]: enhanced effect

Nc1ccn([C@@H]2O[C@H](CO)[C@@H](O)[C@@H]2O)c(=O)n1 [Ara-C, 1-β-D-arabinofuranosylcytosine, reference compound]
mean day of death ([2]; FIG. 10): 13 days
effect on survival ([2]; FIG. 11, 4 bolus doses day 1-4, Ara-C at MTD and at dose equimolar to Ara-C-elaidate): void of activity; also recorded: no effects
Maximum increase in lifespan [3]: 32.7%
doses at which active (increase in life span) [3]: only active at the dose 25 mg/kg
difference (CD50 concentration) between Ara-C and the 3′- and 5′-elaidyl esters ([4]; FIG. 3): ~10 times
time up to which Ara-C is detectable in plasma ([5]; male): 24 h
liver concentration of Ara-C ([5]; male, 4 h): non-detectable levels after 4 hours
plasma levels of both Ara-C and Ara-U ([5]; male, 48 h): below the assay limit of detection at 48 h
proportion of the dose in whole-blood ([5]; male, iv, 0.08 h): 7.76%

CCCCCCCC/C=C/CCCCCCCC(=O)OC[C@H]1O[C@@H](n2ccc(N)nc2=O)[C@@H](O)[C@@H]1O [Ara-C-elaidate, 5′-O-(Elaidoyl) 1-β-D-arabinofuranosylcytosine]
increase of symptom free latency period as compared to Ara-C ([2]; FIG. 10, 3 bolus injections into cisterna magna on day 1, 2 and 4): 135%
mean day of death ([2]; FIG. 10): 30.5 days
survival of one rat (considered cured) ([2]; FIG. 10, 3 bolus injections, no tumours at necropsy day 76): more than 70 days
rats still alive and symptom-free at day 70 ([2]; FIG. 11, 4 daily bolus doses day 1-4 into cisterna magna): 3 out of 5
inactivation (colony forming ability) compared to Ara-C [1]: enhanced effect
effect on colony forming ability compared to Ara-C [6]: Enhanced effect
Maximum increase in lifespan [3]: 47.2%
doses at which active (increase in life span) [3]: active at the doses 12.5 mg/kg and 25 mg/kg
onset of death compared to Ara-C or control [7]: delayed
initial whole blood and plasma concentration compared to Ara-C [5]: higher
maximal concentrations compared to Ara-C [5]: lower
maximal concentrations in most tissues compared to Ara-C [5]: notably higher and occurred at later timepoints
plasma levels of both Ara-C and Ara-U [5]: can still be quantified at 72 h
tissue concentration of total radioactivity compared to 14C-Ara-C [5]: higher at all timepoints up to 120 hours
concentration of active drug in RES tissues compared to Ara-C ([5]; iv): significantly higher
elimination from tissues compared to 14C-Ara-C ([5]; iv): much slower
tissue distribution compared to Ara-C ([5]; iv): significantly altered
β-galactosidase activity (optical density at 570 nm), NFkappaB activation [8]: substantial increase in β-galactosidase activity
Excretion of radioactivity ([9]; 0-6 hours, i.v. male rats): 59.1 ± 3.7 % of dose
Excretion of radioactivity ([9]; 6-24 hours, i.v. male rats): 34.1 ± 2.5 % of dose
Excretion of radioactivity ([9]; 24-48 hours, i.v. male rats): 2.7 ± 0.8 % of dose
Excretion of radioactivity ([9]; 48-72 hours, i.v. male rats): 0.5 ± 0.1 % of dose
Excretion of radioactivity ([9]; 72-96 hours, i.v. male rats): 0.2 ± 0.1 % of dose
detection of metabolite Ara-U in liver ([9]; FIG. 19): no detection of Ara-U up to 24 hours
time a therapeutic significant Ara-C level is sustained in liver ([9]; FIG. 19, after dosing the ester): at least 72 h
time up to which Ara-C is detectable in plasma ([9]; FIG. 20): 72 h
metabolism of Ara-C to Ara-U ([9]; FIG. 20, plasma): less extensive, and starts later
rate of excretion of radioactivity in urine compared to 14C-Ara-C ([9]; Table 2): slower
proportion of the dose in whole-blood ([9]; at 0.08 hours after i.v. administration): 64.7%
excretion via the renal system compared to Ara-C ([9]; i.v. male rats): much slower
conversion to Ara-U compared to Ara-C ([9]; table 1 and FIG. 20): slower
CNS disturbance ([10]; FIG. 18, intratumoural injection): nor was there noted any sign of CNS disturbance
tumour growth (relative tumour volume) ([10]; FIG. 18, intratumoural injection of 10 mg/ml micellar solution): complete stop in tumour growth
toxic side effects ([10]; mouse, in vivo): no signs of toxic side effects
fraction of the molar dose of Ara-C giving similar anti-cancer effects ([11]; FIG. 13): 1/20
mean survival ([11]; FIG. 13, i.v. days 7, 9, 11, 13, 15, 20 mg/kg Ara-C-elaidate vs 200 mg/kg Ara-C): increased mean survival compared to control and Ara-C treated animals
mean survival time ([11]; FIG. 14, i.p. once daily days 7-11, versus every other day): greatly prolonged
survival ([12]; 5 days per week): greatly enhanced
survival compared to control ([12]; dissolved in DMSO): enhanced survival compared to control
survival compared to control ([12]; prepared in micelles): enhanced survival compared to control

CCCCCCCCCCCCCCCCCC(=O)OCC1OC(n2ccc(N)nc2=O)C(O)C1O (stereo not drawn) [Ara-C-5′-stearyl ester]
inactivation (colony forming ability) compared to Ara-C [1]: highest inactivation

O=NN(CCCl)C(=O)NCCCl [BCNU, N,N-cis(2-chloroethyl)N-nitroso-urea]
higher concentration to give CD50 compared to the Ara-C esters ([4]; FIG. 4): more than 1×10^2
concentration needed to obtain CD50, times higher than with the Ara-C esters [13]: about 10 times
concentration needed to obtain CD50 compared to Ara-C alone [13]: reasonably comparable
